One data set concerns rat spleen cells. Put plainly: cells. The following applies: 24 h, read-out: Minimum effective concentration (interferon inducing activity). It is filed as cell-based.
The nature of data set [1]: Metabolic stability test on rat liver S9. In kind it is in vitro ADME. The following applies: rat liver S9 with NADPH, 1 μM test compound, 37° C.; residual rate after reaction. How it is done:
The reaction using liver S9 of rat was conducted on a 96-well plate by using a screening robot by Tecan Company. S9 solution was prepared by adding 250 mM Kpi (ph 7.4) 20 ml and deionized water 20 ml to 10 ml of liver S9 of rat, a Cofactor solution was prepared by dissolving NADPH 220 mg in deionized water 40.5 ml (Final 6 mM), and IS (Internal Standard) solution was prepared by adding IS solution (1 mM DMSO solution) 300 μl to acetonitrile 30 ml (100 times dilution). The test compound (1 μM DMSO solution) was dissolved in an incubator at 37° C. After each 35 μL was poured in a 96-well plate (24 samples/plate), plates (sample plates, 96-well plates for dilution, each Deep well plates for the reaction and the recovery, plates for extraction of a solid phase) and reagents (S9 solution, Cofactor solution, IS (Internal Standard) solution, Stop solution, acetonitrile for elution) were set to the specified position in the booth of the robot and the reaction started (the concentration of the test compounds was 1 μM). Incubation was conducted under shaking at 37° C., the solid phase was extracted (at the same time, the internal standard for analysis was added). To the recovered samples 200 μL/well was added 50 μL of acetonitrile per each well, and to 2 plates of FALCON Deep well were poured 100 μL/well of the solution per well. By subjecting to the LC/MS analysis, the chromatography of the test compound and the internal standard were described and the peak area was calculated. And then, the stability (residual rate after reaction) was calculated.

Data set [2] is described as follows: Metabolic stability test using human plasma. In kind it is in vitro ADME. The following applies: 1 μM test compound, 37° C., 15 minutes, pre-metabolization concentration as 100%. As for the experimental part:
Plasma was prepared from fresh human blood and the test compound (containing 1% DMSO) of the final concentration of 1 μM was added thereto.
After a metabolic reaction by plasma esterase was conducted at 37° C. for 15 minutes, the test compound was extracted with ethyl acetate, and quantitatively analyzed by reverse phase HPLC. The metabolic stability of the test compound was shown by the residual amount (%) per the concentration of pre-metabolization as 100%.

The values that follow come from patent US8969362B2 (priority 2004, dated 2015).

Take `CCCCOc1nc(N)c2[nH]c(=O)n(CCOc3ccccc3C(=O)O)c2n1` [Comparison Example 3, 2-butoxy-8-oxo-9-[2-(2-hydroxycarbonylphenoxy)ethyl]adenine, reference compound]: the minimal effective concentration in the data set on rat spleen cells stood at 0.1 µM.
Still for that read-out and setting: the value for `CCCCOc1nc(N)c2[nH]c(=O)n(CCOc3ccccc3CC(=O)O)c2n1` [Comparison Example 4, 2-butoxy-8-oxo-9-[2-(2-hydroxycarbonylmethylphenoxy)ethyl]adenine, reference compound] was 0.1 µM; that for `CCCCOc1nc(N)c2[nH]c(=O)n(CCCCNS(=O)(=O)c3cccc(C(=O)O)c3)c2n1` [Comparison Example 8, 2-butoxy-8-oxo-9-[4-(3-hydroxycarbonylbenzenesulfonamide)butyl]adenine, reference compound] was 0.1 µM; that for `CCCCOc1nc(N)c2nc(O)n(CCCCNS(=O)(=O)c3cccc(CC(=O)O)c3)c2n1` [Comparison Example 9, 2-butoxy-8-oxo-9-[4-(3-hydroxycarbonylmethylbenzenesulfonamide)butyl]adenine, reference compound] was 0.3 µM.
In the case of `CCCCOc1nc(N)c2[nH]c(=O)n(CCCCNC(=O)Nc3cccc(C(=O)O)c3)c2n1` [Comparison Example 10, 2-butoxy-8-oxo-9-[4-(3-hydroxycarbonylphenylaminocarbonylamino)butyl]adenine, reference compound], the minimal effective concentration in the data set on rat spleen cells was 0.3 µM.
For the molecule `CCCCOc1nc(N)c2[nH]c(=O)n(CCCCNC(=O)Nc3cccc(CC(=O)O)c3)c2n1` [Comparison Example 11, 2-butoxy-8-oxo-9-[4-(3-hydroxycarbonylmethylphenylaminocarbonylamino)butyl]adenine, reference compound], the minimal effective concentration with rat spleen cells amounted to 0.1 µM.
With `CCCCOc1nc(N)c2[nH]c(=O)n(CCOc3cccc(C(=O)OC)c3)c2n1` [Example 1, 2-butoxy-8-oxo-9-[2-(3-methoxycarbonylphenoxy)ethyl]adenine], the minimal effective concentration in the data set with rat spleen cells was 0.0003 µM. For the same molecule, in data set [1], the Residual rate was found to be 0%.
As for `CCCCOc1nc(N)c2[nH]c(=O)n(CCOc3cccc(CC(=O)OC)c3)c2n1` [Example 2, 2-butoxy-8-oxo-9-[2-(3-methoxycarbonylmethylphenoxy)ethyl]adenine], the minimal effective concentration in the data set with rat spleen cells was found to be 0.003 µM. The Residual rate came out at 1.4% in data set [2] and 1% in data set [1].
With `CCCCOc1nc(N)c2[nH]c(=O)n(CCOc3ccccc3C(=O)OC)c2n1` [Example 3, 2-butoxy-8-oxo-9-[2-(2-methoxycarbonylphenoxy)ethyl]adenine], the minimal effective concentration with rat spleen cells amounted to 0.001 µM. Also, the Residual rate in data set [1] is listed as 0%.
The corresponding values for `CCCCOc1nc(N)c2[nH]c(=O)n(CCOc3ccccc3CC(=O)OC)c2n1` [Example 4, 2-butoxy-8-oxo-9-[2-(2-methoxycarbonylmethylphenoxy)ethyl]adenine] are 0.001 µM and 0%.
In data set [1], `CCCCOc1nc(N)c2[nH]c(=O)n(CCOc3ccc(C(=O)OC)cc3)c2n1` [Example 5, 2-butoxy-8-oxo-9-[2-(4-methoxycarbonylphenoxy)ethyl]adenine] showed a Residual rate of 0%.
On to `CCCCOc1nc(N)c2[nH]c(=O)n(CCOc3ccc(CC(=O)OC)cc3)c2n1` [Example 6, 2-butoxy-8-oxo-9-[2-(4-methoxycarbonylmethylphenoxy)ethyl]adenine], for which, in the data set with rat spleen cells, the minimal effective concentration was determined as 0.01 µM. In data set [1], the Residual rate came out at 0%.
With `CCCCOc1nc(N)c2[nH]c(=O)n(CCOc3ccc(CCC(=O)OC)cc3)c2n1` [Example 7, 2-butoxy-8-oxo-9-{2-[4-(2-methoxycarbonylethyl)phenoxy]ethyl}adenine], the Residual rate in data set [1] stood at 0%.
Take `CCCCOc1nc(N)c2[nH]c(=O)n(CCCCNS(=O)(=O)c3cccc(C(=O)OC)c3)c2n1` [Example 8, 2-butoxy-8-oxo-9-[4-(3-methoxycarbonylbenzenesulfonamide)butyl]adenine]: in the data set with rat spleen cells, the minimal effective concentration was found to be 0.003 µM. This molecule returned a Residual rate in data set [1] of 0%.
For `CCCCOc1nc(N)c2[nH]c(=O)n(CCCCNS(=O)(=O)c3cccc(CC(=O)OC)c3)c2n1` [Example 9, 2-butoxy-8-oxo-9-[4-(3-methoxycarbonylmethylbenzenesulfonamide)butyl]adenine], the minimal effective concentration with rat spleen cells was 0.003 µM. The Residual rate in data set [2] was below 1.0%; in data set [1], 0%.
With `CCCCOc1nc(N)c2[nH]c(=O)n(CCCCNC(=O)Nc3cccc(C(=O)OC)c3)c2n1` [Example 10, 2-butoxy-8-oxo-9-[4-(3-methoxycarbonylphenylaminocarbonylamino)butyl]adenine], the minimal effective concentration in the data set with rat spleen cells came out at 0.001 µM. This molecule returned a Residual rate in data set [1] of 1%.
Take `CCCCOc1nc(N)c2[nH]c(=O)n(CCCCNC(=O)Nc3cccc(CC(=O)OC)c3)c2n1` [Example 11, 2-butoxy-8-oxo-9-[4-(3-methoxycarbonylmethylphenylaminocarbonylamino)butyl]adenine]: the minimal effective concentration with rat spleen cells came out at 0.01 µM.
